Reference: patent US11542475B2, “3D microphysiologic system” (Northwestern University, priority 2014, dated 2023)

Columns and labels:
VEGF-A = assay: ELISA of fallopian culture medium: VEGF-A; assay type: cell-based, human; conditions: 10 nM E2, 7 days, n=7; not significantly altered
Description: (§1) Tissues were micro-dissected in alpha-MEM (Gibco, Carlsbad, Calif.) with 1% penicillin-streptomycin (Invitrogen, Carlsbad, Calif.). Individual fimbriae were separated into ˜50 mm^3 pieces. A portion of the tissue was fixed in 2% paraformaldehyde for use as an uncultured control. For optimization studies, fimbriae were cultured without matrix, encapsulated in 0.5% alginate, or encapsulated in 0.5% alginate with 1 mg/ml collagen and 0.1% fibronectin, as previously described for murine cultures (King et al. J Vis Exp. 2011.; herein incorporated by reference in its entirety). For subsequent treatments, 0.5% alginate encapsulated fimbriae were randomly assigned to treatment groups, with at least five fimbriae per condition, per patient, in a 24-well plate containing alpha-MEM and 1% penicillin-streptomycin. […] Prior to fixation, fimbriae were labeled with 10 μM bromodeoxyurine (BrdU, Sigma-Aldrich) for 24 hours to denote proliferating cells. […]
(§2) IL8, VEGF-A, and FGF2 were detected in fallopian culture medium by enzyme-linked immunosorbent assay for human IL8 (EMD Millipore, Billerica, Mass., USA), VEGF-A (RayBiotech, GA, USA), or FGF2 (Abcam) respectively using the manufacturers' protocols. […] Results were normalized to total protein content as determined by western blotting and Ponceau staining to account for difference in tissue size between treatment groups. […]

IL8 = assay: ELISA of fallopian culture medium: IL8; assay type: cell-based, human; conditions: 10 nM E2, 7 days, conditioned medium, n=7
Description: as §1, §2

[1] = system: progesterone receptor (PR) expression in human fimbriae; assay: 3D human fimbriae culture: progesterone receptor immunohistochemistry; assay type: cell-based; conditions: 1 nM and 10 nM E2
Description: Tissues were micro-dissected in alpha-MEM (Gibco, Carlsbad, Calif.) with 1% penicillin-streptomycin (Invitrogen, Carlsbad, Calif.). Individual fimbriae were separated into ˜50 mm^3 pieces. A portion of the tissue was fixed in 2% paraformaldehyde for use as an uncultured control. For optimization studies, fimbriae were cultured without matrix, encapsulated in 0.5% alginate, or encapsulated in 0.5% alginate with 1 mg/ml collagen and 0.1% fibronectin, as previously described for murine cultures (King et al. J Vis Exp. 2011.; herein incorporated by reference in its entirety). For subsequent treatments, 0.5% alginate encapsulated fimbriae were randomly assigned to treatment groups, with at least five fimbriae per condition, per patient, in a 24-well plate containing alpha-MEM and 1% penicillin-streptomycin. […] Prior to fixation, fimbriae were labeled with 10 μM bromodeoxyurine (BrdU, Sigma-Aldrich) for 24 hours to denote proliferating cells. Fimbriae cultures were fixed (2% paraformaldehyde) followed by dehydration in ethanol and xylene, and embedment in paraffin.
Sections (5 μm) were cut and stained via hematoxylin and eosin for morphological analysis or immunohistochemistry was performed to localize proteins of interest as previously described (King et al. Endocr Relat Cancer. 2011. 18:627-42.; herein incorporated by reference in its entirety). […]

[2] = system: primary human endocervical cells; assay: Immunohistochemistry of 3D endocervical cultures (PR, ER, Ki67); assay type: cell-based; conditions: day-14 (E2), day-28 (E2+P4)
Description: To represent a 28-day human menstrual cycle in vitro, a stepwise hormone regimen was added to the cells. For the first 7 days, cells were incubated with 0.1 nM E2, followed by 1 nM E2 for the next 7 days (FIG. 45). Then cells were treated for 1 nM E2 and 10 nM P4 for an additional 7 days, followed by 0.1 nM E2 and 50 nM P4 for 5 days. Then media without hormones were added for the final 2 days for a total culture period of 28 days. Media was collected every 48 h and stored at −20° C. For PR antagonist studies, cells were treated with 100 nM RU486 (Sigma, MO) which was added on day-21. To visualize the cells on scaffold, cells were infected with the adenovirus containing pAD-eGFP-RLC (Cell Imaging Core, Northwestern University) (Khuon et al. Journal of cell science 123:431-440.; herein incorporated by reference in its entirety) by adding 2 μl of amplified virus to 3.5 ml of media per […] for 24 h.
Scaffolds were washed twice in PBS, covered with histogel (Fisher Scientific, MA) and fixed in 4% paraformaldehyde for 5 h. Processing and hematoxylin and eosin (H&E) staining was performed at the Northwestern University Center for Reproductive Sciences Histology Core (Chicago, Ill.). […] HRP activity was detected using 3,3′-Diaminobenzidine (DAB) in 1:50 dilution (Dako, CA) as substrate for 30-60 sec and then counterstained with hematoxylin. […]

FGF2 = assay: ELISA of fallopian culture medium: FGF2; assay type: cell-based, human; conditions: 10 nM E2, 7 days, n=6; not significantly altered
Description: as §1, §2

With C[C@]12CC[C@@H]3c4ccc(O)cc4CC[C@H]3[C@@H]1CC[C@@H]2O [E2, estradiol] the “VEGF-A increase compared to vehicle control” value (VEGF-A) was 140%±75%, the “IL8 increase compared to vehicle control” value (IL8) was 22%±13% and the “progesterone receptor (PR) expression compared to vehicle control” value [1] was “induction”. For the same molecule, the “Ki67 staining compared to control” value [2] was “increased staining” and the “FGF2 decrease compared to vehicle control” value (FGF2) was 9%±8%.
